Organism: Rattus norvegicus
Assay: Open TG-GATES - Regimen: Single
Type: toxicity, organism-based, Sprague-Dawley
Design: regimen Single, gender Male, age 6 weeks
Details: in vivo, po, 100 mg/kg, route gavage, dose level Low; for APTT / Bas / Eos / Fbg / Hb / Ht / Lym / MCH / MCHC / MCV / Mono / Neu / PT / Plat / RBC / Ret / WBC: tissue Blood; for KIDNEY_L / KIDNEY_R / KIDNEY_TOTAL: tissue Kidney; for LIVER: tissue Liver; for A/G / ALP / ALT / AST / BUN / CRE / Ca / Cl / DBIL / GLC / IP / LDH / Na / PL / RALB / TBIL / TC / TG / TP / gamma-GTP: tissue Plasma

## NC(N)=Nc1nc(CSCCC(N)=NS(N)(=O)=O)cs1 [FAMOTIDINE]
3 h
  TERMINAL_BW: 213.7 g
  APTT: 19.6 s
  Bas: 0%
  Eos: 0.6%
  Fbg: 217.4 mg/dL
  Hb: 13.5 g/dL
  Ht: 38.2%
  Lym: 71.2%
  MCH: 22.6 pg
  MCHC: 35.3%
  MCV: 64.1 fL
  Mono: 2.4%
  Neu: 24%
  PT: 12.3 s
  Plat: 112.1 x10_4/uL
  RBC: 596.2 x10_4/ul
  Ret: 7.2%
  WBC: 80 x10_2/uL
  KIDNEY_L: 1 g
  KIDNEY_R: 1 g
  KIDNEY_TOTAL: 1.9 g
  LIVER: 10.3 g
  A/G: 1.7
  ALP: 1057.6 IU/L
  ALT: 38 IU/L
  AST: 64.8 IU/L
  BUN: 9.4 mg/dL
  CRE: 0.4 mg/dL
  Ca: 10.5 mg/dL
  Cl: 104.2 meq/L
  DBIL: 0.076 mg/dL
  GLC: 196.2 mg/dL
  IP: 9.2 mg/dL
  LDH: 186.2 IU/L
  Na: 141 meq/L
  PL: 144.6 mg/dL
  RALB: 3.4 g/dL
  TBIL: 0.1 mg/dL
  TC: 79 mg/dL
  TG: 56.6 mg/dL
  TP: 5.5 g/dL
  gamma-GTP: 1 IU/L
6 h
  TERMINAL_BW: 212.2 g
  APTT: 18.5 s
  Bas: 0%
  Eos: 0.8%
  Fbg: 222.2 mg/dL
  Hb: 13.4 g/dL
  Ht: 37.5%
  Lym: 71.4%
  MCH: 22.2 pg
  MCHC: 35.7%
  MCV: 62.3 fL
  Mono: 2.6%
  Neu: 22.8%
  PT: 12.4 s
  Plat: 120.7 x10_4/uL
  RBC: 602.6 x10_4/ul
  Ret: 6.8%
  WBC: 98.6 x10_2/uL
  KIDNEY_L: 1 g
  KIDNEY_R: 0.9 g
  KIDNEY_TOTAL: 1.9 g
  LIVER: 9.4 g
  A/G: 1.5
  ALP: 808.4 IU/L
  ALT: 34.2 IU/L
  AST: 68 IU/L
  BUN: 9.4 mg/dL
  CRE: 0.4 mg/dL
  Ca: 10.7 mg/dL
  Cl: 103.2 meq/L
  DBIL: 0.068 mg/dL
  GLC: 189.4 mg/dL
  IP: 9 mg/dL
  LDH: 202 IU/L
  Na: 140.4 meq/L
  PL: 141.2 mg/dL
  RALB: 3.2 g/dL
  TBIL: 0.1 mg/dL
  TC: 82 mg/dL
  TG: 60 mg/dL
  TP: 5.4 g/dL
  gamma-GTP: 1.4 IU/L
9 h
  TERMINAL_BW: 209.4 g
  APTT: 18.3 s
  Bas: 0%
  Eos: 0.8%
  Fbg: 232.2 mg/dL
  Hb: 13.4 g/dL
  Ht: 37.1%
  Lym: 74.2%
  MCH: 22 pg
  MCHC: 36%
  MCV: 61.2 fL
  Mono: 2.2%
  Neu: 19.2%
  PT: 12.1 s
  Plat: 116.7 x10_4/uL
  RBC: 606.6 x10_4/ul
  Ret: 7%
  WBC: 87.3 x10_2/uL
  KIDNEY_L: 0.9 g
  KIDNEY_R: 1 g
  KIDNEY_TOTAL: 1.9 g
  LIVER: 9 g
  A/G: 1.6
  ALP: 851.2 IU/L
  ALT: 31.2 IU/L
  AST: 61.2 IU/L
  BUN: 10.2 mg/dL
  CRE: 0.4 mg/dL
  Ca: 10.5 mg/dL
  Cl: 103.6 meq/L
  DBIL: 0.064 mg/dL
  GLC: 200.8 mg/dL
  IP: 8.8 mg/dL
  LDH: 135.4 IU/L
  Na: 141 meq/L
  PL: 140.8 mg/dL
  RALB: 3.4 g/dL
  TBIL: 0.1 mg/dL
  TC: 80.6 mg/dL
  TG: 62.4 mg/dL
  TP: 5.5 g/dL
  gamma-GTP: 0.8 IU/L
24 h
  TERMINAL_BW: 225.3 g
  APTT: 19.8 s
  Bas: 0%
  Eos: 1%
  Fbg: 229.6 mg/dL
  Hb: 13.3 g/dL
  Ht: 37.2%
  Lym: 78.2%
  MCH: 22.3 pg
  MCHC: 35.8%
  MCV: 62.2 fL
  Mono: 2.2%
  Neu: 16.2%
  PT: 12 s
  Plat: 121.8 x10_4/uL
  RBC: 599.4 x10_4/ul
  Ret: 6.1%
  WBC: 86.8 x10_2/uL
  KIDNEY_L: 1 g
  KIDNEY_R: 1 g
  KIDNEY_TOTAL: 2 g
  LIVER: 10.8 g
  A/G: 1.4
  ALP: 990 IU/L
  ALT: 40.6 IU/L
  AST: 68.2 IU/L
  BUN: 14.2 mg/dL
  CRE: 0.4 mg/dL
  Ca: 10.6 mg/dL
  Cl: 104.2 meq/L
  DBIL: 0.076 mg/dL
  GLC: 199.4 mg/dL
  IP: 7.7 mg/dL
  LDH: 198.4 IU/L
  Na: 140.6 meq/L
  PL: 145.8 mg/dL
  RALB: 3.3 g/dL
  TBIL: 0.1 mg/dL
  TC: 74.2 mg/dL
  TG: 82.6 mg/dL
  TP: 5.6 g/dL
  gamma-GTP: 0.6 IU/L

Source: ChEMBL document CHEMBL3885861, “Open TG-GATES”
